Test results from patent US6660255B1, “Inhibition of gene transcription by polyamide DNA-binding ligands” (California Institute of Technology, priority 1997, dated 2003).
Entries after “also recorded” stand apart in the source; their conditions may differ.

Assays:
[1] = test system: 5′-AGTGAA-3′ within the IE86 binding site; design: species or system human cytomegalovirus; details: 1-200 nM
Description: (§1) These compounds together with purified recombinant IE86 protein were used in DNase I footprint experiments with a singly end-labeled restriction fragment derived from the CMV major immediate early promoter. […] A singly-end labeled restriction fragment was used in DNase I footprinting reactions. […] Lanes 1 and 18 represent a G+A sequencing ladder. […] The location of the TATA box and the start of transcription are indicated.

[2] = test system: rhTBP binding to the HIV-1 TATA element; assay: DNase I footprinting, inhibition of TBP binding to HIV-1 LTR fragment; design: species or system human
Procedure: (§2) Regions of polyamide protection were determined by analysis of the digestion products on a 6% denaturing polyacrylamide sequencing gel. Storage phosphorimage analysis of the data was used to obtain dissociation constants for the binding reactions (using Kodak Storage Phosphor Screens and a Molecular Dynamics SF PhosphorImager). Recombinant human TBP (rhTBP) was obtained from Promega and was used in footprinting and gel mobility shift experiments as recommended. The reaction mixtures also contained 100 ng of poly dG-poly dC per 10 μL gel shift reaction or 50 μL footprinting reaction. For gel mobility shift assays, 6% polyacrylamide gels (20:1, acrylamide to bisacrylamide) contained 44 mM Tris-borate, pH 8.3, 1 mM EDTA, 4 nM MgCl2 and 0.02% (v/v) NP-40. The same buffer was used for electrophoresis of 1 mm thick gels at 15 volts/cm for 2 hours at 4° C.

Ets-1 ΔN331/DNA complex = assay: Gel mobility shift, Ets-1 binding to HIV-1 enhancer oligonucleotide
[3] = test system: HIV-1 enhancer/promoter restriction fragment; assay: DNase footprint titration on HIV-1 enhancer/promoter fragment, other sites; type: binding; details: mismatch polyamide, 1-60 nM
Description: White, S., Baird, E. E. & Dervan, P. B. describes the pairing rules for recognition in the minor groove of DNA by pyrrole-imidazole polyamides. Chem. & Biol. 4, 569-578 (1997); Swalley, S. E., Baird, E. E. & Dervan, P. B. describe the sequence specificity of the β/β pairing Chem Eur. J. 3, 1600 (1997). […] For DNase I footprinting a 400-bp restriction fragment containing the HIV-1 enhancer and promoter regions was isolated from pHIV LTR-CAT plasmid DNA (obtained from Dr. K. A. Jones of The Salk Institute, La Jolla, Calif.) (P. L. Sheridan et al., describe the sequence composition of the plasmid pHIV LTR-CAT Genes Dev. 9, 2090 (1995)). Labeled DNA was incubated with polyamide (45 minutes) and digested with DNase I under single-hit conditions.
as §2, with “For gel mobility shift assays, 6% polyacrylamide gels (20:1, acrylamide to bisacrylamide) contained 44 mM Tris-borate, pH 8.3, 1 mM EDTA, 4 nM MgCl2 and 0.02% (v/v) NP-40. The same buffer was used for electrophoresis of 1 mm thick gels at 15 volts/cm for 2 hours at 4° C.” left out

[4] = test system: 5′-AGTACT-3′ site adjacent to the LEF-1 binding site; assay: DNase footprint titration on HIV-1 enhancer/promoter fragment; details: mismatch polyamide
Procedure: White, S., Baird, E. E. & Dervan, P. B. describes the pairing rules for recognition in the minor groove of DNA by pyrrole-imidazole polyamides. […] Labeled DNA was incubated with polyamide (45 minutes) and digested with DNase I under single-hit conditions.
as §2

[5] = test system: IE86 binding to the CMV MIEP; assay: DNase I footprinting, IE86 binding to the crs element; design: species or system human cytomegalovirus; details: approximately 250 nM IE86
Description: as §1

## CN(C)CCCNC(=O)CCNC(=O)c1cc(NC(=O)c2nc(NC(=O)CCNC(=O)c3cc(NC(=O)c4nc(NC(=O)CCCNC(=O)c5cc(NC(=O)c6nc(NC(=O)CCNC(=O)c7cc(NC(=O)c8nccn8C)cn7C)cn6C)cn5C)cn4C)cn3C)cn2C)cn1C [polyamide 4, ImPy-β-ImPy-γ-ImPy-β-ImPy-β-Dp]
[1]
  footprint on the CMV fragment: did not give a footprint
[2]; DNase I footprinting, 2.5-10 nM polyamide
  inhibition of TBP binding to the HIV-1 TATA element: inhibited
[2]; five-fold excess of polyamide over DNA binding sites
  polyamide concentration at which TBP binding is inhibited: 2.5 nM
Ets-1 ΔN331/DNA complex; polyamide preincubated with oligonucleotide, 100-400 nM
  effect on Ets-1 DNA-binding / complex formation: did not prevent
Ets-1 ΔN331/DNA complex; titration, mismatch polyamide
  effect on complex formation in the same concentration range: virtually no effect
[3]
  binding to the HIV-1 enhancer/promoter fragment: failed to detect any high affinity sites; also recorded: does not bind
[4]
  fold reduced affinity for the 5′-AGTACT-3′ sequence: > 100 fold
[5]
  interference with IE86 binding: did not interfere
